# From patent US9186354B2, “Pyrrolidine derived β3 adrenergic receptor agonists” (Merck Sharp & Dohme Corp., priority 2010, dated 2015)
# Molecular target: T1, human β3 adrenergic receptor (Homo sapiens, UniProt P13945)
# T1 construct: stably transfected with the cloned β-adrenergic receptor (β1, β2 or β3); expressed in transfected cells; host or cells: Chinese hamster ovary (CHO) cells, stably transfected
# Experiment: β3AR-cAMP functional assay in CHO cells stably transfected with cloned β3-adrenergic receptor (LANCE)
# Assay type: cell-based
# Conditions: Table 2; Beta-3 agonist in vitro functional assay, given as ranges; read-out: Human β3 Agonist Functional Activity
# Procedure: Functional Assay: cAMP production in response to ligand is measured according to Barton, et al. (1991, Agonist-induced desensitization of D2 dopamine receptors in human Y-79 retinoblastoma cells. Mol. Pharmacol. […]) modified as follows. cAMP production is measured using a homogenous time-resolved fluorescence resonance energy transfer immunoassay (LANCE™, Perkin Elmer) according to the manufacture's instructions. Chinese hamster ovary (CHO) cells, stably transfected with the cloned β-adrenergic receptor (β1, β2 or β3) are harvested after 3 days of subculturing. Harvesting of cells is done with Enzyme-free Dissociation Media (Specialty Media). Cells are then counted and resuspended in assay buffer (Hank's Balanced salt solution supplemented with 5 mM HEPES, […]) containing a phosphodiesterase inhibitor (IBMX, 0.6 mM). The reaction is initiated by mixing 6,000 cells in 6 μL with 6 μL Alexa Fluor labeled cAMP antibody (LANCE™ kit) which is then added to an assay well containing 12 μL of compound (diluted in assay buffer to 2× final concentration). The reaction proceeds for 30 minutes at room temperature and is terminated by the addition of 24 ul detection buffer (LANCE™ kit). The assay plate is then incubated for 1 hour at room temperature and time-resolved fluorescence measured on a Perkin Elmer Envision reader or equivalent. The unknown cAMP level is determined by comparing fluorescence levels to a cAMP standard curve.
# The non-selective, full agonist […] ligand isoproterenol is used at all three receptors to determine maximal stimulation. The human β3 adrenergic receptor (AR) selective ligand (S)—N-[4-[2-[[2-hydroxy-3-(4-hydroxyphenoxy)propyl]amino]ethyl]-phenyl]-4-iodobenzenesulfonamide is used as a control in all assays. Isoproterenol is titrated at a final concentration in the assay of 10^−10 M to 10^−5 M and the selective ligand (S)—N-[4-[2-[[2-hydroxy-3-(4-hydroxyphenoxy)propyl]amino]ethyl]phenyl]-4-iodobenzenesulfonamide is titrated at the β3 receptor at concentration of 10^−10 M to 10^−5 M. Unknown ligands are titrated at all 3 β-adrenergic receptor subtypes at a final concentration in the assay of 10^−10 M to 10^−5 M to determine the EC50. The EC50 is defined as the concentration of compound that gives 50% activation of its own maximum.
# T1 sequence (P13945 whole entry): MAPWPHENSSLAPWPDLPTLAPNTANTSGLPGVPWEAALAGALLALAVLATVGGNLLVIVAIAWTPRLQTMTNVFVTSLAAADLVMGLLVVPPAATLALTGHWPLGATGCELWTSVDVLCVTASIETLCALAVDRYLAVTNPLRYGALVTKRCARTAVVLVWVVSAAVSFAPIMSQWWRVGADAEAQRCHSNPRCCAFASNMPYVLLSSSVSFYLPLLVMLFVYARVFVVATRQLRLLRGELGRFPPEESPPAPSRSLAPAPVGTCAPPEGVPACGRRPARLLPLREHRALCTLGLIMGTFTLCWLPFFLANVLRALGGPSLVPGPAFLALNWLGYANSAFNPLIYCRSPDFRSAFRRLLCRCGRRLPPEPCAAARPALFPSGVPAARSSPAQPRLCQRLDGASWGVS
row,EC50 [nM],SMILES
1,< 10,"O=C(c1ccc(C[C@@H]2CC[C@H]([C@H](O)c3ccccc3)N2)cn1)N1C[C@@H]2[C@H](C1)[C@H]2c1nnc(-c2cnccn2)o1 [Example 13, (R)-phenyl{(2R, 5S)-5-[(6-{[6-(5-pyrazin-2-yl-1,3,4-oxadiazol-2-yl)-3-azabicyclo[3.1.0]hex-3-yl]carbonyl}pyridin-3-yl)methyl]pyrrolidin-2-yl)methanol]"
2,11 to 100,"CCc1nnc([C@H]2[C@@H]3CN(C(=O)c4ccc(C[C@@H]5CC[C@H]([C@H](O)c6ccccc6)N5)cn4)C[C@@H]32)o1 [Example 12, (R)-{(2R, 5S)-5-[(6-{[6-(5-ethyl-1,3,4-oxadiazol-2-yl)-3-azabicyclo[3.1.0]hex-3-yl]carbonyl}pyridin-3-yl)methyl]pyrrolidin-2-yl)(phenyl)methanol]"
3,11 to 100,"Cn1nnnc1[C@H]1[C@@H]2CN(C(=O)c3ccc(C[C@@H]4CC[C@H]([C@H](O)c5ccccc5)N4)cn3)C[C@@H]21 [Example 9, (R)-{(2R, 5S)-5-[(6-{[6-(1-methyl-1H-tetrazol-5-yl)-3-azabicyclo[3.1.0]hex-3-yl]carbonyl}pyridin-3-yl)methyl]pyrrolidin-2-yl)(phenyl)methanol]"
4,11 to 100,"O=C(c1ccc(C[C@@H]2CC[C@H]([C@H](O)c3ccccc3)N2)cn1)N1CCC2(CCOC2=O)CC1 [Example 8, 8-{[5-({(2S, 5R)-5-[(R)-hydroxy(phenyl)methyl]pyrrolidin-2-yl}methyl)pyridin-2-yl]carbonyl}-2-oxa-8-azaspiro[4.5]decan-1-one]"
5,11 to 100,O=C(c1ccc(C[C@@H]2CC[C@H]([C@H](O)c3ccccc3)N2)cn1)N1C[C@@H]2[C@H](C1)[C@H]2c1nnnn1CC(F)(F)F [Example 10]
6,11 to 100,"O=C(c1ccc(C[C@@H]2CC[C@H]([C@H](O)c3ccccc3)N2)cn1)N1CCN(Cc2nnn(CC(F)(F)F)n2)CC1 [Example 14, (R)-phenyl[(2R, 5S)-5-({6-[(4-{[2-(2,2,2-trifluoroethyl)-2H-tetrazol-5-yl]methyl}piperazin-1-yl)carbonyl]pyridin-3-yl}methyl)pyrrolidin-2-yl]methanol]"
7,11 to 100,"O=C(c1ccc(C[C@@H]2CC[C@H]([C@H](O)c3ccccc3)N2)cn1)N1C[C@@H]2[C@H](C1)[C@H]2c1nnco1 [Example 11, (R)-{(2R, 5S)-5-[(6-{[6-(1,3,4-oxadiazol-2-yl)-3-azabicyclo[3.1.0]hex-3-yl]carbonyl}pyridin-3-yl)methyl]pyrrolidin-2-yl)(phenyl)methanol]"

# Same assay, conditions: cAMP production, CHO cells expressing human β3 AR; read-out: human β3 functional activity
row,EC50 [nM],SMILES
1,101 to 1000,"O=C(c1ccc(C[C@@H]2CC[C@H]([C@H](O)c3ccccc3)N2)cn1)N1CCC(c2nnnn2CC(F)(F)F)CC1 [Example 5, (R)-Phenyl-(2R,5S)-5-{[6-({4-[1-(2,2,2-trifluoroethyl)-1H-tetrazol-5-yl]piperidin-1-yl}carbonyl-pyridin-3-yl]methyl}pyrrolidin-2-yl)methanol]"
2,11 to 100,"O=C(c1ccc(C[C@@H]2CC[C@H]([C@H](O)c3ccccc3)N2)cn1)N1C[C@@H]2C(n3cnnn3)[C@@H]2C1 (stereo partly drawn) [Example 6, (R)-phenyl[(2R,5S)-5-[(6-{[(1R,5S,6S)-6-(1H-tetrazol-1-yl)-3-azabicyclo[3.1.0]hex-3yl]carbonyl}pyridin-3-yl)methyl]pyrrolidine-2-yl]methanol]"
3,20.4,O=C(Nc1ccc(C[C@@H]2CC[C@H]([C@H](O)c3ccccc3)N2)cn1)[C@@H]1CCc2scnc21 [Example 1]
4,101 to 1000,"O=C(c1ccc(C[C@@H]2CC[C@H]([C@H](O)c3ccccc3)N2)cn1)N1CCN(Cc2ccccn2)CC1 [Example 7, (R)-phenyl[(2R,5S)-5-[(6-{[4-(pyridin-2-ylmethyl)piperazin-1-yl]carbonyl}pyridin-3-yl)methyl]pyrrolidin-2-yl]methanol]"

# Molecular target: T1, human β3 adrenergic receptor
# Experiment: as above
# Assay type: cell-based
# Conditions: Table 1; determined with β3AR-cAMP assay, given as ranges; read-out: Human β3 Binding
row,EC50 [nM],SMILES
1,11 to 100,"O=C(Cc1nnc(-c2ccccc2)[nH]1)Nc1ccc(C[C@@H]2CC[C@H]([C@H](O)c3ccccc3)N2)cn1 [Example 4, N-[5-([(2S, 5R)-5-[(R)-hydroxy(phenyl)methyl]pyrrolidin-2-yl}methyl)pyridin-2-yl]-2-(5-phenyl-4H-1,2,4-triazol-3-yl)acetamide]"
2,11 to 100,"O=C(Nc1ccc(C[C@@H]2CC[C@H]([C@H](O)c3ccccc3)N2)cn1)C1CCc2nccc(=O)n21 (stereo partly drawn) [Example 2, N-[5-({(2S, 5R)-5-[(R)-hydroxy(phenyl)methyl]pyrrolidin-2-yl}methyl)pyridin-2-yl]-4-oxo-4,6,7,8-tetrahydropyrrolo[1,2-a]pyrimidine-6-carboxamide]"
3,101 to 1000,"O=C(Cn1ncccc1=O)Nc1ccc(C[C@@H]2CC[C@H]([C@H](O)c3ccccc3)N2)cn1 [Example 3, N-[5-({(2S, 5R)-5-[(R)-hydroxy(phenyl)methyl]pyrrolidin-2-yl}methyl)pyridin-2-yl]-2-(6-oxopyridazin-1(6H)-yl)acetamide]"

# Molecular target: T2, β3AR (Rattus norvegicus, UniProt P26255)
# T2 construct: Following intravenous administration to rats; host or cells: live rats (endogenous receptor, bladder)
# T2 sequence (P26255 whole entry): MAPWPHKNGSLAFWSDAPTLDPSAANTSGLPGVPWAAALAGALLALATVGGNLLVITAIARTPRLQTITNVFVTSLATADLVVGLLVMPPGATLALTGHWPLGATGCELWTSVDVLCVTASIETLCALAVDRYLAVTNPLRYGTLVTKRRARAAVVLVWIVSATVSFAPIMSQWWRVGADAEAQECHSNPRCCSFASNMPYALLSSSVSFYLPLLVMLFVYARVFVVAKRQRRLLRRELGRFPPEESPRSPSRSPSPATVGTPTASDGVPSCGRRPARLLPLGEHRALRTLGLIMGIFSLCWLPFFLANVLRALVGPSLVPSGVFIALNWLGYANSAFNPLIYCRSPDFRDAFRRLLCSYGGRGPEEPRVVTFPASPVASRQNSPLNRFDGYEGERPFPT
# Experiment: not given
# Conditions: rats, intravenous administration; cited from earlier work
row,SMILES,bladder pressure
1,C[C@H](Cc1ccc2c(c1)OC(C(=O)[O-])(C(=O)[O-])O2)NC[C@H](O)c1cccc(Cl)c1.[Na+].[Na+] [CL316243],reduces bladder pressure

# Same assay, conditions: rats, intravenous administration; prolongation of micturition interval without increasing residual urine volume; cited from earlier work
row,SMILES,bladder capacity (cystometric studies)
1,C[C@H](Cc1ccc2c(c1)OC(C(=O)[O-])(C(=O)[O-])O2)NC[C@H](O)c1cccc(Cl)c1.[Na+].[Na+] [CL316243],increases bladder capacity
